Results: PubChem BioAssay AID1919003 (Molecular Pharmacology Branch, DTP, NCI, 2023)

System: 786-0 complex spheroids with HUVEC/MSC, growth % test/control
Experiment: Anticancer human tumor 786-0 cell line growth inhibition [AhR];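 note: compound exposure lasted seven days before the read-out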
Conditions: for IC50: curve of first compound; for viability, T/C: stronger effect = lower value
Procedure, shortened: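 Spheroids combined tumor cells with HUVEC endothelial cells and human MSCs as stroma. AhR antagonists were paired with standard or investigational drugs, each dosed in half-log steps down from near clinical Cmax, or from 10 microM where Cmax was unknown.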

[1] = second compound 0.1 µM, first compound 0.0316 µM
[2] = second compound 0.1 µM, first compound 0.1 µM
[3] = second compound 0.1 µM, first compound 0.316 µM
[4] = second compound 0.1 µM, first compound 1 µM
[5] = second compound 0.1 µM, first compound 3.16 µM
[6] = second compound 0.1 µM, first compound 10 µM
[7] = second compound 0.316 µM, first compound 0.0316 µM
[8] = second compound 0.316 µM, first compound 0.1 µM
[9] = second compound 0.316 µM, first compound 0.316 µM
[10] = second compound 0.316 µM, first compound 1 µM
[11] = second compound 0.316 µM, first compound 3.16 µM
[12] = second compound 0.316 µM, first compound 10 µM
[13] = second compound 1 µM, first compound 0.0316 µM
[14] = second compound 1 µM, first compound 0.1 µM
[15] = second compound 1 µM, first compound 0.316 µM
[16] = second compound 1 µM, first compound 1 µM
[17] = second compound 1 µM, first compound 3.16 µM
[18] = second compound 1 µM, first compound 10 µM
[19] = second compound 3.16 µM, first compound 0.0316 µM
[20] = second compound 3.16 µM, first compound 0.1 µM
[21] = second compound 3.16 µM, first compound 0.316 µM
[22] = second compound 3.16 µM, first compound 1 µM
[23] = second compound 3.16 µM, first compound 3.16 µM
[24] = second compound 3.16 µM, first compound 10 µM
[25] = second compound 10 µM, first compound 0.0316 µM
[26] = second compound 10 µM, first compound 0.1 µM
[27] = second compound 10 µM, first compound 0.316 µM
[28] = second compound 10 µM, first compound 1 µM
[29] = second compound 10 µM, first compound 3.16 µM
[30] = second compound 10 µM, first compound 10 µM

Row | Structure (SMILES) | IC50 (second compound 0.1 µM) [µM] | IC50 (second compound 0.316 µM) [µM] | IC50 (second compound 1 µM) [µM] | IC50 (second compound 3.16 µM) [µM] | IC50 (second compound 10 µM) [µM] | viability, T/C [1] [%] | viability, T/C [2] [%] | viability, T/C [3] [%] | viability, T/C [4] [%] | viability, T/C [5] [%] | viability, T/C [6] [%] | viability, T/C [7] [%] | viability, T/C [8] [%] | viability, T/C [9] [%] | viability, T/C [13] [%] | viability, T/C [14] [%] | viability, T/C [19] [%] | viability, T/C [20] [%] | viability, T/C [25] [%] | viability, T/C [26] [%] | further results
1 | COc1cc(Nc2ncc3c(n2)-c2ccc(Cl)cc2C(c2c(F)cccc2OC)=NC3)ccc1C(=O)O + Cc1cncc(-c2nc(NCCc3c[nH]c4ccccc34)c3ncn(C(C)C)c3n2)c1 | 6.87 | 6.37 | 6.55 | 7.76 | < 0.0316 | 115 | 115 | 155 | 104 | 75.5 | 38.2 | 121 | 121 | 144 | 115 | 125 | 63.3 | 68.3 | 4.3 | 1.69 | viability, T/C [10]: 123%; viability, T/C [11]: 69%; viability, T/C [12]: 37.8%; viability, T/C [15]: 152%; viability, T/C [16]: 114%; viability, T/C [17]: 71.2%; viability, T/C [18]: 37.9%; viability, T/C [21]: 94.2%; viability, T/C [22]: 92.3%; viability, T/C [23]: 70.1%; viability, T/C [24]: 44.4%; viability, T/C [27]: 2.04%; viability, T/C [28]: 3.84%; viability, T/C [29]: 4.27%; viability, T/C [30]: 16.9%
2 | Cn1ncnc1C1c2n[nH]c(=O)c3cc(F)cc(c23)NC1c1ccc(F)cc1 (stereo not given) + Cc1cncc(-c2nc(NCCc3c[nH]c4ccccc34)c3ncn(C(C)C)c3n2)c1 | > 0.1 | > 0.1 | > 0.1 | > 0.1 | < 0.000316 | 120 | 115 | – | – | – | – | 111 | 116 | – | 105 | 119 | 72.8 | 80.4 | 17.4 | 21.4 | viability, T/C (second compound 0.1 µM, first compound 0.000316 µM): 122%; viability, T/C (second compound 0.1 µM, first compound 0.001 µM): 120%; viability, T/C (second compound 0.1 µM, first compound 0.00316 µM): 120%; viability, T/C (second compound 0.1 µM, first compound 0.01 µM): 117%; viability, T/C (second compound 0.316 µM, first compound 0.000316 µM): 117%; viability, T/C (second compound 0.316 µM, first compound 0.001 µM): 119%; viability, T/C (second compound 0.316 µM, first compound 0.00316 µM): 110%; viability, T/C (second compound 0.316 µM, first compound 0.01 µM): 116%; viability, T/C (second compound 1 µM, first compound 0.000316 µM): 112%; viability, T/C (second compound 1 µM, first compound 0.001 µM): 111%; viability, T/C (second compound 1 µM, first compound 0.00316 µM): 118%; viability, T/C (second compound 1 µM, first compound 0.01 µM): 99.7%; viability, T/C (second compound 3.16 µM, first compound 0.000316 µM): 76.6%; viability, T/C (second compound 3.16 µM, first compound 0.001 µM): 77.5%; viability, T/C (second compound 3.16 µM, first compound 0.00316 µM): 78.7%; viability, T/C (second compound 3.16 µM, first compound 0.01 µM): 75.8%; viability, T/C (second compound 10 µM, first compound 0.000316 µM): 19.2%; viability, T/C (second compound 10 µM, first compound 0.001 µM): 19.2%; viability, T/C (second compound 10 µM, first compound 0.00316 µM): 18.9%; viability, T/C (second compound 10 µM, first compound 0.01 µM): 17.7%
3 | NS(=O)(=O)OCC1CC(n2ccc3c(NC4CCc5ccccc54)ncnc32)CC1O (stereo not given) + Cc1cncc(-c2nc(NCCc3c[nH]c4ccccc34)c3ncn(C(C)C)c3n2)c1 | 0.639 | 0.649 | 0.581 | 0.306 | < 0.0316 | 96.8 | 84.5 | 74.8 | 35 | 10.5 | 5.21 | 100 | 82.9 | 75.8 | 103 | 83.6 | 71.9 | 66 | 6.13 | 6.79 | viability, T/C [10]: 36%; viability, T/C [11]: 8.3%; viability, T/C [12]: 4.21%; viability, T/C [15]: 74.2%; viability, T/C [16]: 30.7%; viability, T/C [17]: 8.16%; viability, T/C [18]: 5.53%; viability, T/C [21]: 50.1%; viability, T/C [22]: 16.5%; viability, T/C [23]: 3.65%; viability, T/C [24]: 2.28%; viability, T/C [27]: 1.4%; viability, T/C [28]: 1.01%; viability, T/C [29]: 0.49%; viability, T/C [30]: 0.45%
4 | O=C(C=Cc1cccc(S(=O)(=O)Nc2ccccc2)c1)NO + Cc1cncc(-c2nc(NCCc3c[nH]c4ccccc34)c3ncn(C(C)C)c3n2)c1 | 7.06 | 7.68 | 6.53 | 1.6 | < 0.0316 | 120 | 113 | 112 | 119 | 103 | 26.5 | 113 | 118 | 113 | 113 | 111 | 69.2 | 68.2 | 13.8 | 8.02 | viability, T/C [10]: 113%; viability, T/C [11]: 112%; viability, T/C [12]: 31.4%; viability, T/C [15]: 106%; viability, T/C [16]: 106%; viability, T/C [17]: 96.7%; viability, T/C [18]: 22.4%; viability, T/C [21]: 59.4%; viability, T/C [22]: 53.7%; viability, T/C [23]: 45%; viability, T/C [24]: 11.8%; viability, T/C [27]: 5.17%; viability, T/C [28]: 0.6%; viability, T/C [29]: 2.92%; viability, T/C [30]: 1.45%
